Data on 47 compounds can be found in patent US20230021448A1, “COMPOUNDS AND COMPOSITIONS FOR TREATING CONDITIONS ASSOCIATED WITH STING ACTIVITY” (IFM Due, Inc., priority 2019, published 2023).

The target in the experiment is T1, STING (Homo sapiens, UniProt Q86WV6, G230A/H232R/R293Q/R71H).
T1 construct: host or cells: THP1-Dual KO-IFNAR2 cells
T1 sequence (Q86WV6 whole entry R71H/G230A/H232R/R293Q): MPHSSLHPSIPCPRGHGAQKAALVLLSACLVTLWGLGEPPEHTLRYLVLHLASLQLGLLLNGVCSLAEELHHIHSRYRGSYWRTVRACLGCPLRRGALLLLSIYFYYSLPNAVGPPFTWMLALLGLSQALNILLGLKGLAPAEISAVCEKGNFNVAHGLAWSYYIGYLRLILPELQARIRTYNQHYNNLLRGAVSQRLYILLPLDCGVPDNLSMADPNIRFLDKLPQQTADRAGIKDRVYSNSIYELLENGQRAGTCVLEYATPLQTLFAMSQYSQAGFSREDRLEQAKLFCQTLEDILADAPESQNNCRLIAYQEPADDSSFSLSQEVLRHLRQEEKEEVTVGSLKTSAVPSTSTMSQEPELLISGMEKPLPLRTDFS
As to the kind of experiment: STING reporter assay: luciferase reporter activity in THP1-Dual KO-IFNAR2 cells stimulated with 2'3'cGAMP. The experiment is classed as cell-based. Particulars: 2′3′cGAMP 15 μM final, 24h, read-out: hSTING: EC50. As for the experimental part: STING pathway activation by the compounds described herein was measured using THIP1-Dua1™ cells (KO-IFNAR2).
TTIP1-Dual™ KO-IFNAR2 Cells (obtained from invivogen) were maintained in RPMI, 10% FCS, 5 ml P/S, 2 mM L-glut, 10 mM Hepes, and 1 mM sodium pyruvate. Compounds were spotted in empty 384 well tissue culture plates (Greiner 781182) by Echo for a final concentration of 0.0017-100 μM. Cells were plated into the TC plates at 40 μL per well, 2×10E6 cells/mL. For activation with STING ligand, 2′3′cGAMP (MW 718.38, obtained from Invivogen), was prepared in Optimem media.
The following solutions were prepared for each 1×384 plate: • Solution A: 2 mL Optimem with one of the following stimuli: • […] • Solution B: 2 mL Optimem with 60 μL Lipofectamine 2000->Incubate 5 min at RT
2 mL of solution A and 2 ml Solution B was mixed and incubated for 20 min at room temperature (RT). 20 uL of transfection solution (A+B) was added on top of the plated cells, with a final 2′3′cGAMP concentration of 15 μM. The plates were then centrifuged immediately at 340 g for 1 minute, after which they were incubated at 37° C., 5% C02, >98% humidity for 24h. Luciferase reporter activity was then measured. EC50 values were calculated by using standard methods known in the art.
Luciferase reporter assay: 10 μL of supernatant from the assay was transferred to white 384-plate with flat bottom and squared wells. One pouch of QUANTI-Luc™ Plus was dissolved in 25 mL of water. 100 μL of QLC Stabilizer per 25 mL of QUANTI-Luc™ Plus solution was added. 50 μL of QUANTI-Luc™ Plus/QLC solution per well was then added. Luminescence was measured on a Platereader (e.g., Spectramax I3X (Molecular Devices GF3637001)).
Luciferase reporter activity was then measured. EC50 values were calculated by using standard methods known in the art.
By EC50 is commonly meant the concentration needed to bring the measured effect to its halfway point. Take `CC[C@H]1CC[C@H](NC(=O)C(=O)Nc2c[nH]c3cc(F)c(F)cc23)CC1` [Compound 186]: the EC50 was in the range of 40 to 200 nM. Regarding `Cc1ccc(OCCNC(=O)C(=O)Nc2c[nH]c3cc(F)c(F)cc23)cc1C` [Compound 147, N1-(5,6-difluoro-1H-indol-3-yl)-N2-(2-(3,4-dimethylphenoxy)ethyl)oxalamide], the EC50 lay within 200 to 1000 nM. The value for `CC(CN(C)c1ccccn1)NC(=O)C(=O)Nc1c[nH]c2cc(F)c(F)cc12` (centres unmarked) [Compound 284] was 1000 to 5000 nM; that for `O=C(NCC1(c2cccc(Cl)c2)CCOCC1)C(=O)Nc1c[nH]c2cc(F)c(F)cc12` [Compound 140] was 1000 to 5000 nM. For `N#Cc1cc(NC(=O)C(=O)Nc2c[nH]c3cc(F)c(F)cc23)ccc1N1CCCC1` [Compound 286, N′-[3-cyano-4-(pyrrolidin-1-yl)phenyl]-N-(5,6-difluoro-1H-indol-3-yl)ethanediamide], the EC50 lay within 200 to 1000 nM.

Consider `O=C(Nc1c[nH]c2cc(F)c(F)cc12)C(=O)NC1CCC2(CCCC2)C1` (single isomer, unassigned) [Compound 246], for which the EC50 lay within 200 to 1000 nM.

On to `O=C(Nc1cnc2sccc2c1)C(=O)Nc1c[nH]c2cc(F)c(F)cc12` [Compound 296, N′-(5,6-difluoro-1H-indol-3-yl)-N-{thieno[2,3-b]pyridin-5-yl}ethanediamide], for which the EC50 was 200 to 1000 nM. The value for `O=C(Nc1c[nH]c2cc(F)c(F)cc12)C(=O)N[C@H]1CC[C@@H](Oc2ccc(C(F)(F)F)nc2)CC1` [Compound 222] was 200 to 1000 nM. The figure for `O=C(NCCC12C[C@H]3C[C@@H](C1)C[C@@H](C2)C3)C(=O)Nc1c[nH]c2cc(F)c(F)cc12` [Compound 188] is 200 to 1000 nM; for `O=C(Nc1c[nH]c2cc(F)ccc12)C(=O)NC1CCC(Oc2ccc(C(F)(F)F)cn2)CC1` (centres unmarked) [Compound 225, N-(6-fluoro-1H-indol-3-yl)-N′-(4-((5-(trifluoromethyl)pyridin-2-yl)oxy)cyclohexyl)oxalamide] it is 40 to 200 nM; for `O=C(NCc1cc(C(F)(F)F)ccn1)C(=O)Nc1c[nH]c2cc(F)c(F)cc12` [Compound 126] it is 40 to 200 nM. The figure for `O=C(Nc1c[nH]c2cc(F)c(F)cc12)C(=O)NC1CCN(c2ccc(C(F)(F)F)cn2)C1` (centres unmarked) [Compound 337] is 200 to 1000 nM; for `O=C(NCC1CCC(F)(F)CC1)C(=O)Nc1c[nH]c2cc(F)c(F)cc12` [Compound 151, N1-(5,6-difluoro-1H-indol-3-yl)-N2-((4,4-difluorocyclohexyl)methyl) oxalamide] it is 200 to 1000 nM.

In the case of `O=C(Nc1c[nH]c2cc(F)c(F)cc12)C(=O)N[C@@H]1CCC[C@@H](Oc2ccc(C(F)(F)F)cc2)C1` (single isomer, unassigned) [Compound 228], the EC50 lay in the range of 200 to 1000 nM.

Regarding `O=C(NCC(c1ccccc1)C(F)F)C(=O)Nc1c[nH]c2cc(F)c(F)cc12` (centres unmarked) [Compound 139], the 50% effective concentration (EC50) was 200 to 1000 nM. As to `O=C(NC[C@@H]1CC12CCCCC2)C(=O)Nc1c[nH]c2cc(F)c(F)cc12` [Compound 176], the EC50 fell in the range of 200 to 1000 nM.

For `CN(Cc1ccc(C(F)(F)F)c(Cl)c1)C(=O)C(=O)Nc1c[nH]c2cc(F)c(F)cc12` [Compound 141], the EC50 is 5000 to 100000 nM. The value for `CN1CCOc2cc(NC(=O)C(=O)Nc3c[nH]c4cc(F)c(F)cc34)cnc21` [Compound 219] was 1000 to 5000 nM. As to `O=C(Nc1c[nH]c2cc(F)c(F)cc12)C(=O)N[C@H]1C[C@H](Oc2cncc(C(F)(F)F)c2)C1` [Compound 201], the EC50 lay within 200 to 1000 nM. With `O=C(Nc1ccc(C(F)(F)F)cc1)C(=O)Nc1c[nH]c2ccc(F)c(F)c12` [Compound 180], the EC50 is 200 to 1000 nM. The value for `O=C(Nc1c[nH]c2cc(F)c(F)cc12)C(=O)N[C@H]1CCCC(Oc2ccc(C(F)(F)F)cc2)C1` (some centres unmarked) [Compound 233] was 200 to 1000 nM; that for `O=C(NCc1ccc(C(F)(F)F)c(Cl)c1)C(=O)Nc1c[nH]c2ccc(-c3cnn(CC(F)(F)F)c3)cc12` [Compound 350] was 200 to 1000 nM; that for `O=C(Nc1c[nH]c2cc(F)c(F)cc12)C(=O)N[C@H]1C[C@@H](Oc2ccc(C(F)(F)F)nc2)C1` [Compound 198] was 200 to 1000 nM. With `O=C(Nc1c[nH]c2cc(F)c(F)cc12)C(=O)NC1CCC(Oc2ccc(C(F)(F)F)cc2)C1` (centres unmarked) [Compound 217], the EC50 fell in the range of 200 to 1000 nM. For the compound `CC(C)(CO)CCCN1CCN(C(=O)C(=O)Nc2c[nH]c3cc(F)c(F)cc23)CC1` [Compound 206], the EC50 was 5000 to 100000 nM. The figure for `O=C(Nc1c[nH]c2cc(F)c(F)cc12)C(=O)NC1CCOC2(CCCC2)C1` (centres unmarked) [Compound 278] is 1000 to 5000 nM; for `O=C(Nc1c[nH]c2cc(F)c(F)cc12)C(=O)N1CCC(Oc2ccc(C(F)(F)F)cc2)CC1` [Compound 317] it is 200 to 1000 nM; for `O=C(NCC12CC3CC(CC(C3)C1)C2)C(=O)Nc1c[nH]c2cc(F)c(F)cc12` [Compound 112] it is 1000 to 5000 nM. The figure for `CN(C)CC(NC(=O)C(=O)Nc1c[nH]c2cc(F)c(F)cc12)c1ccccc1` (centres unmarked) [Compound 308, N-(5,6-difluoro-1H-indol-3-yl)-N′-[2-(dimethylamino)-1-phenylethyl] ethanediamide] is 5000 to 100000 nM; for `O=C(NCCC1CCCCC1)C(=O)Nc1c[nH]c2cc(F)c(F)cc12` [Compound 118] it is 40 to 200 nM; for `CC[C@H]1CC[C@@H](NC(=O)C(=O)Nc2c[nH]c3cc(F)c(F)cc23)CC1` [Compound 185] it is 200 to 1000 nM. Turning to `COCC(NC(=O)C(=O)Nc1c[nH]c2cc(F)c(F)cc12)c1ccccc1` (centres unmarked) [Compound 310, N-(5,6-difluoro-1H-indol-3-yl)-N′-(2-methoxy-1-phenylethyl) ethanediamide], the EC50 was 1000 to 5000 nM. The value for `CC(NC(=O)C(=O)Nc1c[nH]c2cc(F)c(F)cc12)c1cc(C(F)(F)F)c(Cl)cn1` (centres unmarked) [Compound 303] was 200 to 1000 nM. The figure for `CC(C)n1cc(-c2ccc3[nH]cc(NC(=O)C(=O)NCc4ccc(C(F)(F)F)c(Cl)c4)c3c2)cn1` [Compound 129] is 200 to 1000 nM. On to `O=C(NCC1(c2ccccc2)CC1)C(=O)Nc1c[nH]c2cc(F)c(F)cc12` [Compound 146, N1-(5,6-difluoro-1H-indol-3-yl)-N2-((1-phenylcyclopropyl)methyl)oxalamide], for which the EC50 lay within 200 to 1000 nM. The figure for `O=C(Nc1c[nH]c2cc(F)c(F)cc12)C(=O)NC(c1ccccc1)C(F)(F)F` (single isomer, unassigned) [Compound 239, N-(5,6-difluoro-1H-indol-3-yl)-N′-(2,2,2-trifluoro-1-phenylethyl)oxalamide] is 200 to 1000 nM; for `CC(C)(C)C1CCC(NC(=O)C(=O)Nc2c[nH]c3cc(F)c(F)cc23)CC1` (centres unmarked) [Compound 191] it is 200 to 1000 nM; for `O=C(Nc1c[nH]c2cc(F)c(F)cc12)C(=O)NC1CCC2(CCCCC2)C1` (centres unmarked) [Compound 280] it is 200 to 1000 nM. As to `C[C@H](NC(=O)C(=O)Nc1c[nH]c2cc(F)c(F)cc12)c1ccc(C(F)(F)F)cc1` (stereo in doubt) [Compound 329], the EC50 lay within 40 to 200 nM. The figure for `N#Cc1cc(F)c2[nH]cc(NC(=O)C(=O)NCc3ccc(C(F)(F)F)c(Cl)c3)c2c1` [Compound 215] is 200 to 1000 nM. `O=C(Nc1c[nH]c2cc(F)c(F)cc12)C(=O)N[C@@H]1CCC2(CCCCC2)C1` (stereo in doubt) [Compound 248]: the EC50 is 40 to 200 nM. The value for `O=C(Nc1ccc2c(c1)OC(F)(F)O2)C(=O)Nc1c[nH]c2cc(F)c(F)cc12` [Compound 292, N-(5,6-difluoro-1H-indol-3-yl)-N′-(2,2-difluoro-2H-1,3-benzodioxol-5-yl)ethanediamide] was 200 to 1000 nM; that for `COc1cc(NC(=O)C(=O)Nc2c[nH]c3cc(F)c(F)cc23)ccc1N1CCCC1` [Compound 293, N-(5,6-difluoro-1H-indol-3-yl)-N′-[3-methoxy-4-(pyrrolidin-1-yl)phenyl] ethanediamide] was 200 to 1000 nM; that for `O=C(Nc1c[nH]c2cc(F)c(F)cc12)C(=O)N[C@H]1CC[C@H](Oc2ccc(C(F)(F)F)nc2)CC1` [Compound 223, N-(5,6-difluoro-1H-indol-3-yl)-N′-[trans-4-[[6-(trifluoromethyl)pyridin-3-yl]oxy]cyclohexyl]ethanediamide] was 200 to 1000 nM. As for `CC(C)(NC(=O)C(=O)Nc1c[nH]c2cc(F)c(F)cc12)c1ccc(C(F)(F)F)cc1` [Compound 125], the EC50 lay in the range of 200 to 1000 nM. The value for `O=C(Nc1c[nH]c2cc(F)c(F)cc12)C(=O)N[C@H]1CCN(c2ccccc2)C1` [Compound 127] was 40 to 200 nM.

Regarding `O=C(Nc1c[nH]c2cc(F)c(F)cc12)C(=O)NC(c1ccccc1)C(F)(F)F` (centres unmarked) [Compound 312, N1-(5,6-difluoro-1H-indol-3-yl)-N2-(2,2,2-trifluoro-1-phenylethyl)oxalamide], the EC50 fell in the range of 200 to 1000 nM.
